{"source": "ChEMBL document CHEMBL1125670", "about": "“Synthesis and evaluation of novel ether lipid nucleoside conjugates for anti-HIV-1 activity” (J Med Chem, 1991)", "key": {"CEM-SS": {"tested_on": "CEM-SS", "assay": "Concentration of compound required to 50% growth inhibition of CEM-SS cells"}, "[1]": {"tested_on": "Human immunodeficiency virus 1", "assay": "Anti-HIV-1 activity against syncytial plaque formation", "format": "functional, organism-based"}, "[2]": {"tested_on": "Human immunodeficiency virus 1", "assay": "Anti-HIV-1 activity against syncytial plaque formation at a conc. of 1 uM", "format": "functional"}, "[3]": {"tested_on": "Human immunodeficiency virus 1", "assay": "Anti-HIV-1 activity against syncytial plaque formation at a conc. of 0.25 uM", "format": "functional"}, "[4]": {"tested_on": "Human immunodeficiency virus 1", "assay": "Anti-HIV-1 activity against syncytial plaque formation at a conc. of 0.03 uM", "format": "functional"}, "U1 [5]": {"tested_on": "U1", "assay": "(§1) inhibition of HIV-1 induced RT production in U1 cells", "format": "functional, Homo sapiens", "design": "scale not given: the % may be the effect or the level left"}, "U1 [6]": {"tested_on": "U1", "assay": "(§2) inhibition of infectious virus production in U1 cells", "format": "functional, Homo sapiens", "design": "scale not given: the % may be the effect or the level left"}, "[7]": {"tested_on": "Human immunodeficiency virus 1", "assay": "Anti-HIV-1 activity against syncytial plaque formation at a conc. of 0.06 uM", "format": "functional"}, "[8]": {"tested_on": "Human immunodeficiency virus 1", "assay": "Anti-HIV-1 activity against syncytial plaque formation at a conc. of 0.12 uM", "format": "functional"}, "U1 [9]": {"tested_on": "U1", "assay": "(§3) inhibition of p24 core antigen synthesis in U1 cells", "format": "functional, Homo sapiens", "design": "scale not given: the % may be the effect or the level left"}, "[10]": {"tested_on": "Human immunodeficiency virus 1", "assay": "Anti-HIV-1 activity against syncytial plaque formation at a conc. of 0.5 uM", "format": "functional"}, "[11]": {"tested_on": "Human immunodeficiency virus 1", "assay": "Anti-HIV-1 activity against syncytial plaque formation at a conc. of 0.0003 uM", "format": "functional"}, "U1 [12]": {"tested_on": "U1", "assay": "as §2", "format": "functional, Homo sapiens"}, "U1 [13]": {"tested_on": "U1", "assay": "as §1", "format": "functional, Homo sapiens"}, "[14]": {"tested_on": "Human immunodeficiency virus 1", "assay": "Anti-HIV-1 activity against syncytial plaque formation at a conc. of 0.0007 uM", "format": "functional"}, "[15]": {"tested_on": "Human immunodeficiency virus 1", "assay": "Anti-HIV-1 activity against syncytial plaque formation at a conc. of 0.006 uM", "format": "functional"}, "[16]": {"tested_on": "Human immunodeficiency virus 1", "assay": "Anti-HIV-1 activity against syncytial plaque formation at a conc. of 0.0015 uM", "format": "functional"}, "U1 [17]": {"tested_on": "U1", "assay": "as §3", "format": "functional, Homo sapiens"}, "[18]": {"tested_on": "Human immunodeficiency virus 1", "assay": "Anti-HIV-1 activity against syncytial plaque formation at a conc. of 0.003 uM", "format": "functional"}, "[19]": {"tested_on": "Human immunodeficiency virus 1", "assay": "Anti-HIV-1 activity against syncytial plaque formation at a conc. of 0.012 uM", "format": "functional"}}}
{"smiles": "CCCCCCCCCCCCCCCCCC(=O)NCC(COP(=O)(O)O)OCC", "note": "(stereo not given)", "values": [{"measurement": "IC50", "setting": "CEM-SS", "result": "> 100", "unit": "µM"}, {"measurement": "IC50", "setting": "[1]", "result": "> 100", "unit": "µM"}]}
{"smiles": "CCCCCCCCCCCCCCCCCC(=O)NCC(COP(=O)(O)OC[C@@H]1CC[C@H](n2cnc3c(=O)[nH]cnc32)O1)OCC", "note": "(stereo not given in full)", "values": [{"measurement": "IC50", "setting": "CEM-SS", "result": "> 100", "unit": "µM"}, {"measurement": "IC50", "setting": "[1]", "result": 1.56, "unit": "µM"}]}
{"smiles": "CCCCCCCCCCCCCCCCCC(=O)[N-]CC(COP(=O)([O-])OCC[N+](C)(C)C)OCC.[Na+]", "note": "(stereo not given)", "values": [{"measurement": "inhibition at 1 µM", "setting": "[2]", "result": 89, "unit": "%"}, {"measurement": "IC50", "setting": "CEM-SS", "result": 14.3, "unit": "µM"}, {"measurement": "inhibition at 0.25 µM", "setting": "[3]", "result": 60, "unit": "%"}, {"measurement": "inhibition at 0.03 µM", "setting": "[4]", "result": 14, "unit": "%"}, {"measurement": "Control", "setting": "U1 [5]", "result": 147, "unit": "%"}, {"measurement": "IC50", "setting": "[1]", "result": 0.11, "unit": "µM"}, {"measurement": "Control", "setting": "U1 [6]", "result": 33, "unit": "%"}, {"measurement": "inhibition at 0.06 µM", "setting": "[7]", "result": 34, "unit": "%"}, {"measurement": "inhibition at 0.12 µM", "setting": "[8]", "result": 49, "unit": "%"}, {"measurement": "Control", "setting": "U1 [9]", "result": 74, "unit": "%"}, {"measurement": "inhibition at 0.5 µM", "setting": "[10]", "result": 74, "unit": "%"}]}
{"smiles": "CCCCCCCCCCCCCCCCCCOCC(COP(=O)([O-])OCC[N+](C)(C)C)OC", "note": "(stereo not given) [EDELFOSINE]", "values": [{"measurement": "IC50", "setting": "CEM-SS", "result": 4, "unit": "µM"}, {"measurement": "IC50", "setting": "[1]", "result": 1.4, "unit": "µM"}]}
{"smiles": "CCCCCCCCCCCCCCCCSCC(COP(=O)([O-])OCC[N+](C)(C)C)OCC", "note": "(stereo not given)", "values": [{"measurement": "IC50", "setting": "CEM-SS", "result": 4.1, "unit": "µM"}, {"measurement": "IC50", "setting": "[1]", "result": 0.6, "unit": "µM"}]}
{"smiles": "O=c1[nH]cnc2c1ncn2[C@H]1CC[C@@H](CO)O1", "note": "[DIDANOSINE]", "values": [{"measurement": "IC50", "setting": "CEM-SS", "result": "> 100", "unit": "µM"}, {"measurement": "IC50", "setting": "[1]", "result": 1.7, "unit": "µM"}]}
{"smiles": "CCCCCCCCCCCCCCCCOCC(COP(=O)(O)OC[C@H]1O[C@@H](n2cc(C)c(=O)[nH]c2=O)C[C@@H]1N=[N+]=[N-])OCC", "note": "(stereo not given in full)", "values": [{"measurement": "IC50", "setting": "CEM-SS", "result": 35, "unit": "µM"}, {"measurement": "IC50", "setting": "[1]", "result": 0.03, "unit": "µM"}]}
{"smiles": "CCCCCCCCCCCCCCCCCC(=O)NCC(CO)OCC", "note": "(stereo not given)", "values": [{"measurement": "IC50", "setting": "CEM-SS", "result": "> 100", "unit": "µM"}, {"measurement": "IC50", "setting": "[1]", "result": "> 100", "unit": "µM"}]}
{"smiles": "Cc1cn([C@H]2C[C@H](N=[N+]=[N-])[C@@H](CO)O2)c(=O)[nH]c1=O", "note": "[ZIDOVUDINE]", "values": [{"measurement": "IC50", "setting": "CEM-SS", "result": 5.1, "unit": "µM"}, {"measurement": "inhibition at 0.0003 µM", "setting": "[11]", "result": 18, "unit": "%"}, {"measurement": "Of control", "setting": "U1 [12]", "result": 87, "unit": "%"}, {"measurement": "Of control", "setting": "U1 [13]", "result": 90, "unit": "%"}, {"measurement": "inhibition at 0.0007 µM", "setting": "[14]", "result": 53, "unit": "%"}, {"measurement": "inhibition at 0.006 µM", "setting": "[15]", "result": 87, "unit": "%"}, {"measurement": "inhibition at 0.0015 µM", "setting": "[16]", "result": 70, "unit": "%"}, {"measurement": "Of control", "setting": "U1 [17]", "result": 101, "unit": "%"}, {"measurement": "inhibition at 0.003 µM", "setting": "[18]", "result": 79, "unit": "%"}, {"measurement": "inhibition at 0.012 µM", "setting": "[19]", "result": 93, "unit": "%"}]}
{"smiles": "CCCCCCCCCCCCCCCCCC(=O)NCC(COP(=O)([O-])OC[C@H]1O[C@@H](n2cc(C)c(=O)[nH]c2=O)C[C@@H]1N=[N+]=[N-])OCC.[Na+]", "note": "(stereo not given in full)", "values": [{"measurement": "IC50", "setting": "CEM-SS", "result": 53.8, "unit": "µM"}, {"measurement": "Control", "setting": "U1 [5]", "result": 121, "unit": "%"}, {"measurement": "IC50", "setting": "[1]", "result": 0.03, "unit": "µM"}, {"measurement": "Control", "setting": "U1 [6]", "result": 67, "unit": "%"}, {"measurement": "Control", "setting": "U1 [9]", "result": 84, "unit": "%"}]}
